Data published in patent US20210382058A1, “PATIENT SELECTION FOR TREATMENT OF MYC POSITIVE CANCERS WITH INDENOISOQUINOLINES” (Purdue Research Foundation, priority 2020, published 2021).
Read-outs that look alike come from different tables or passages of the source.

Legend:
[1] = test system: MYC protein expression in MCF-7 breast cancer cells; experiment: Western blotting of MYC protein level in MCF-7 cells; format: cell-based, human; conditions: Homo sapiens, MCF7; western blotting, MCF-7 cells, 0.5, 1, 2, and 4 μM, 24 hours; read-out: MYC Inhibition
In short: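 Immunoblotting with ECL detection quantified MYC, with GAPDH (1:2000) as reference and anti-MYC at 1:1000.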

[2] = test system: NCI-60 cancer cell lines; experiment: NCI-60 cancer cell line drug screen (GI50, MGM); format: cell-based, human; conditions: Homo sapiens; for GI50: read-out: Antiproliferative Activities [GI50 (μM)]
Description: Cancer cells were incubated with the test compounds at five concentrations ranging from 100 μM to 10 nM for 48 h. […] The approximate average of GI50 values across the entire panel of NCI-60 cancer cell lines for each compound was recorded as the MGM value.

[3] = target: T1, human topoisomerase I (Homo sapiens, UniProt P11387); conditions: relative topoisomerase I inhibition levels, previously determined, six levels (0 - 5, +++++ = 5); cited from earlier work
T1 sequence (P11387 1-765): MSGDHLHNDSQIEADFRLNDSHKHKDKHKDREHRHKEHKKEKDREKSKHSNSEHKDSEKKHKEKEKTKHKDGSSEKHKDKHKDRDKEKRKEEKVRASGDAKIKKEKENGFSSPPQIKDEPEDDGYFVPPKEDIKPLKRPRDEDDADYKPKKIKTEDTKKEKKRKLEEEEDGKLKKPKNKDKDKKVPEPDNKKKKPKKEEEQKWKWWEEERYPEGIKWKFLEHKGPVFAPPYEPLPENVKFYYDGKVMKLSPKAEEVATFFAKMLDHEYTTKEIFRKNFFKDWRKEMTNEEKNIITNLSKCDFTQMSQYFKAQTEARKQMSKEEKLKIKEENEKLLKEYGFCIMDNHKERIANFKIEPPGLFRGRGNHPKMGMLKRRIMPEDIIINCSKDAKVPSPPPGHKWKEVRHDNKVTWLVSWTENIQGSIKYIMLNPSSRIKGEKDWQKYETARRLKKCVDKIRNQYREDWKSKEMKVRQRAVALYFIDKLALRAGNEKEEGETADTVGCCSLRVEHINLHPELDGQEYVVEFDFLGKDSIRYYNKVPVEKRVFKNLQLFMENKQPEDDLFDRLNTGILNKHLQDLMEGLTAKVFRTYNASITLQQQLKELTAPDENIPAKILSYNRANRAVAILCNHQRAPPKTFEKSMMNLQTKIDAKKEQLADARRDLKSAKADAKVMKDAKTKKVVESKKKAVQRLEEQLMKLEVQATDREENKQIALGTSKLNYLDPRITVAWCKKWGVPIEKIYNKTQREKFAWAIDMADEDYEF

Molecule CN(C)CCCn1c2c(c3ccc(N4CCNCC4)cc3c1=O)C(=O)c1ccccc1-2 [Compound 25] has a minimal effective concentration [1] of over 4 µM, a GI50 ([2]; 786-0, Renal Cancer, 786-0) of 1.34 µM and a GI50 ([2]; A549, Non-Small Cell Lung Cancer, A549/ATCC) of 0.22 µM. For the same molecule, the GI50 ([2]; ACHN, Renal Cancer, ACHN) was 0.39 µM, the GI50 ([2]; BT-549, Breast Cancer, BT-549) was 1.27 µM and the GI50 ([2]; CAKI-1, Renal Cancer, CAKI-1) was 1.05 µM. It also gave a GI50 ([2]; CCRF-CEM, Leukemia, CCRF-CEM) of 0.34 µM, a GI50 ([2]; COLO 205, Colon Cancer, COLO 205) of 0.62 µM and a GI50 ([2]; DU-145, Prostate Cancer, DU-145) of 0.33 µM. For the same molecule, the GI50 ([2]; EKVX, Non-Small Cell Lung Cancer, EKVX) was 1.18 µM, the GI50 ([2]; HCC 2998, Colon Cancer, HCC-2998) was 0.35 µM and the GI50 ([2]; HCT-15, Colon Cancer, HCT-15) was 0.73 µM. It also gave a GI50 ([2]; HL-60, Leukemia, HL-60(TB)) of 1.17 µM, a GI50 ([2]; HOP-62, Non-Small Cell Lung Cancer, HOP-62) of 1.06 µM and a GI50 ([2]; HOP-92, Non-Small Cell Lung Cancer, HOP-92) of 1.72 µM. It also gave a GI50 ([2]; HT-29, Colon Cancer, HT29) of 0.35 µM, a GI50 ([2]; Hs-578T, Breast Cancer, HS 578T) of 1.44 µM and a GI50 ([2]; IGROV-1, Ovarian Cancer, IGROV1) of 0.84 µM. It also gave a GI50 ([2]; K562, Leukemia, K-562) of 0.83 µM, a GI50 ([2]; KM12, Colon Cancer, KM12) of 1.13 µM and a GI50 ([2]; LOX IMVI, Melanoma, LOX IMVI) of 0.15 µM. The GI50 ([2]; Leukemia, SR) was 0.31 µM, the GI50 ([2]; MCF7, Breast Cancer, MCF7) was 0.3 µM and the GI50 ([2]; MDA-MB-231, Breast Cancer, MDA-MB-231/ATCC) was 0.51 µM. It also gave a GI50 ([2]; MDA-MB-435, Melanoma, MDA-MB-435) of 1.2 µM, a GI50 ([2]; MDA-MB-468, Breast Cancer, MDA-MB-468) of 0.95 µM and a GI50 ([2]; MOLT-4, Leukemia, MOLT-4) of 0.1 µM. For the same molecule, the GI50 ([2]; Malme-3M, Melanoma, MALME-3M) was 1.42 µM, the GI50 ([2]; Melanoma, M14) was 1.05 µM and the GI50 ([2]; NCI-H23, Non-Small Cell Lung Cancer, NCI-H23) was 1.05 µM. The GI50 ([2]; NCI-H226, Non-Small Cell Lung Cancer, NCI-H226) was 0.56 µM, the GI50 ([2]; NCI-H322M, Non-Small Cell Lung Cancer, NCI-H322M) was 0.45 µM and the GI50 ([2]; NCI-H460, Non-Small Cell Lung Cancer, NCI-H460) was 0.31 µM. For the same molecule, the GI50 ([2]; NCI-H522, Non-Small Cell Lung Cancer, NCI-H522) was 0.96 µM, the GI50 ([2]; OVCAR-3, Ovarian Cancer, OVCAR-3) was 1.05 µM and the GI50 ([2]; OVCAR-4, Ovarian Cancer, OVCAR-4) was 0.34 µM. For the same molecule, the GI50 ([2]; OVCAR-5, Ovarian Cancer, OVCAR-5) was 2.12 µM, the GI50 ([2]; OVCAR-8, Ovarian Cancer, OVCAR-8) was 0.4 µM and the GI50 ([2]; Ovarian Cancer, NCl/ADR-RES) was 1.16 µM. For the same molecule, the GI50 ([2]; Prostate Cancer, PC-3) was 0.86 µM, the GI50 ([2]; RPMI-8226, Leukemia, RPMI-8226) was 0.27 µM and the GI50 ([2]; RXF 393, Renal Cancer, RXF 393) was 1.29 µM. The GI50 ([2]; Renal Cancer, U0-31) was 0.77 µM, the GI50 ([2]; SF-268, CNS Cancer, SF-268) was 0.95 µM and the GI50 ([2]; SF-295, CNS Cancer, SF-295) was 1.16 µM. For the same molecule, the GI50 ([2]; SF-539, CNS Cancer, SF-539) was 1.61 µM, the GI50 ([2]; SK-MEL-2, Melanoma, SK-MEL-2) was 1.71 µM and the GI50 ([2]; SK-MEL-5, Melanoma, SK-MEL-5) was 0.7 µM. For the same molecule, the GI50 ([2]; SK-MEL-28, Melanoma, SK-MEL-28) was 1.53 µM, the GI50 ([2]; SK-OV-3, Ovarian Cancer, SK-OV-3) was 1.05 µM and the GI50 ([2]; SN12C, Renal Cancer, SN12C) was 0.33 µM. The GI50 ([2]; SNB-19, CNS Cancer, SNB-19) was 0.54 µM, the GI50 ([2]; SNB-75, CNS Cancer, SNB-75) was 0.95 µM and the GI50 ([2]; SW-620, Colon Cancer, SW-620) was 0.16 µM. For the same molecule, the GI50 ([2]; T47D, Breast Cancer, T-47D) was 1.55 µM, the GI50 ([2]; TK-10, Renal Cancer, TK-10) was 1.33 µM and the GI50 ([2]; U-251, CNS Cancer, U251) was 0.64 µM. It also gave a GI50 ([2]; UACC-62, Melanoma, UACC-62) of 1.03 µM, a GI50 ([2]; UACC-257, Melanoma, UACC-257) of 1.69 µM and a mean GI50 across NCI-60 panel (MGM) ([2]; average of GI50 values across the entire panel of NCI-60 cancer cell lines) of 720 nM. For the same molecule, the “Top1 Inhibiton” value [3] was “++ (medium inhibition, ++, MYC expression inhibited at 2.0 μM, or no clear dose-dependent MYC inhibition)”.
